Test results reported in patent publication US4382958A, “Secondary amines and compositions for treatment of hypoglycaemia or obesity” (priority 1980, dated 1983).
Like-named read-outs stand apart in the source and are kept apart here.

Experiments:
[1] = tested on: Female CFLP mice; experiment: Effect on energy expenditure and food intake of mice; assay type: in vivo; conditions: Mus musculus, % of mice dosed with water; for response vs control in vivo at 18.5 mg/kg: 18.5 mg/kg po; for response vs control in vivo at 22.2 mg/kg: 22.2 mg/kg po; for response vs control in vivo at 24.5 mg/kg: 24.5 mg/kg po
Description: Female CFLP mice each weighing approximately 24 g were given food and water ad lib before and during the experiment. The compounds were dissolved in water by addition of one mole of hydrochloric acid per mole of compound and these solutions were administered orally to each of 12 mice. A further 12 mice were dosed orally with water. The mice were placed in boxes through which air was drawn and the oxygen content of the air leaving the boxes was measured. The energy expenditure of the mice was calculated for 21 hours after dosing from the volume of air leaving the boxes and its oxygen content following the principles described by J. B. de V. Weir, J. Physiol. […] The food intake of the mice was measured over this same period of 21 hours. The results are expressed as a percentage of the mean food intake or rate of energy expenditure of the mice dosed with water.

[2] = tested on: Rat hearts; experiment: Cardiac activity: rat hearts perfused by the Langendorff procedure
Description: Rat hearts were perfused by the Langendorff procedure.
Hearts were dissected free within 30 seconds of death and reverse perfused via the aorta and coronary vessels with Krebs-Ringer bicarbonate solution (pH 7.4, 37° C.) gassed with 95% oxygen: 5% carbon dioxide at a flow rate between 8-12 cm^3 /minute. Responses were observed after injection of drug dissolved in isotonic saline into the perfusion media.
Results are expressed as a percentage of the maximum response due to salbutamol.

[3] = tested on: Female CFLP mice; experiment: Hypoglycaemic activity: blood glucose of fasted mice after subcutaneous glucose; assay type: in vivo; conditions: Mus musculus, 2 hour period after glucose, vs control mice given water, read-out: REDUCTION IN AREA UNDER BLOOD GLUCOSE CURVE (%); for inhibition in vivo at 1 µmol/kg: 1.0 μ mol/kg oral
Description: Female CFLP mice, weighing approximately 25 g, were fasted for 24 hours prior to the study. The compounds under study were administered orally as an aqueous solution to each of 8 mice. 30 minutes later a blood sample ([…]) was obtained from the tail for the analysis of blood glucose. Immediately after taking this blood sample, glucose (1 g/kg body weight) was administered subcutaneously to each mouse. 8 mice were given water as a control. Blood samples were then obtained from each mouse at 30 minute intervals for 120 minutes.
Compounds that produced a significant (P<0.05) reduction on blood glucose, compared with control mice given water, at any time interval, were considered active. The area under the blood glucose curve over the 2 hour period after the administration of the glucose was calculated for each compound and compared with the value for control animals.

[4] = tested on: rat ear; experiment: Topical anti-inflammatory activity: croton oil inflammation of the rat ear; assay type: in vivo; conditions: 6 hours, activity = significant (5% level) reduction in ear weight vs non-drug treated control
Description: The method used is based on that described by G. Tonelli et al (Endocrinology, 77, 625-634, 1965). An inflammation is induced in the rat ear by the application of 50 μl of a 1% solution of croton oil in tetrahydrofuran, test compounds being dissolved in the irritant vehicle. After 6 hours the inflammation is assessed by killing the animals and weighing the ears. Topical anti-inflammatory activity of a compound is generally considered to be shown when a significant (5% level) reduction in ear weight is seen compared to non-drug treated control.

[5] = tested on: genetically obese mice; experiment: Anti-obesity activity: carcass lipid of genetically obese mice after oral gavage daily for 28 days; assay type: in vivo; conditions: 12.2 mg/kg p.o. daily for 28 days, control 18.75
Description: The compound of Example 5 was administered by oral gavage in water or carboxymethyl-cellulose suspension to genetically obese mice daily for 28 days. At the end of the time the carcass composition was determined.

[6] = tested on: Platelet aggregation (response to collagen); experiment: Platelet aggregation inhibition activity: response to intravenous collagen in mice; assay type: in vivo; conditions: 1 μ mol/kg po; two hours before collagen 400 μg/kg i.v.
Description: Male CFLP mice (ca 20 g, n=8) were dosed orally with compound or vehicle (controls) after an overnight fast. Two hours later each mouse received an intravenous dose of collagen (400 μg/kg, pH 6-6.6). Exactly 30 sec. after injection of collagen, each mouse was placed in a chamber of CO2 until respiration ceased. […] Each concentration was expressed as a percent of that obtained in a tail blood sample taken immediately before injection of collagen.

[7] = 0-3h, read-out: MEAN ENERGY EXPENDITURE (%) 0-3h
[8] = 0-21h, read-out: MEAN ENERGY EXPENDITURE (%) 0-21h
[9] = over 21 hours, read-out: MEAN FOOD INTAKE (%)
[10] = 30 μg added to perfusate, percentage of the maximum response due to salbutamol, read-out: HEART RATE
[11] = 30 μg added to perfusate, percentage of the maximum response due to salbutamol, read-out: HEART TENSION

Compound	response vs control in vivo at 18.5 mg/kg [1, 7] [%]	response vs control in vivo at 18.5 mg/kg [1, 8] [%]	response vs control in vivo at 18.5 mg/kg [1, 9] [%]	Emax [2, 10] [%]	Emax [2, 11] [%]	inhibition in vivo at 3 µmol/kg ([3]; 3.0 μ mol/kg oral) [%]	ACTIVITY (topical anti-inflammatory) ([4]; 2 mg/rat ear topical)	response vs control in vivo at 22.2 mg/kg [1, 7] [%]	response vs control in vivo at 22.2 mg/kg [1, 8] [%]	response vs control in vivo at 22.2 mg/kg [1, 9] [%]	Emax ([2]; read-out: HEART TENSION) [%]	inhibition in vivo at 1 µmol/kg [3] [%]	ACTIVITY (topical anti-inflammatory) ([4]; 0.5 mg/rat ear topical)	g LIPID/MOUSE, TREATED [5] [g LIPID/MOUSE]	response vs control in vivo at 24.5 mg/kg [1, 7] [%]	response vs control in vivo at 24.5 mg/kg [1, 8] [%]	response vs control in vivo at 24.5 mg/kg [1, 9] [%]	% INHIBITION OF RESPONSE TO COLLAGEN [6] [%]
CC(Cc1ccc(OCCO)cc1)NCC(O)c1ccccc1F (stereo not shown) [Example 1, N-[2-(4-(2-Hydroxyethoxy)phenyl)-1-methylethyl]-2-hydroxy-2-(2-fluorophenyl)ethanamine]	176	128	70	63	53	61	Active	–	–	–	–	–	–	–	–	–	–	–
CC(Cc1ccc(OCCCO)cc1)NCC(O)c1cccc(C(F)(F)F)c1 (stereo not shown) [Example 4, N-[2-(4-(3-Hydroxypropoxy)phenyl)-1-methylethyl]-2-hydroxy-2-(3-trifluoromethylphenyl)-ethanamine]	–	–	–	7	–	–	–	179	121	75	0	31	Active	–	–	–	–	–
CC(Cc1ccc(OCCCCCCO)cc1)NCC(O)c1cccc(C(F)(F)F)c1 (stereo not shown) [Example 5, N-[2-(4-(6-Hydroxyhexyloxy)phenyl)-1-methylethyl]-2-hydroxy-2-(3-trifluoromethylphenyl)-ethanamine]	–	–	–	0	0	–	–	–	–	–	–	59	–	15.80	213	129	103	47
